The source of these data is patent US20140120087A1, “TRIAZOLOPYRIDINES” (BAYER INTELLECTUAL PROPERTY GMBH, priority 2011, published 2014).

Experiment [1] addresses T1, Mps-1 kinase (Homo sapiens, UniProt P33981).
T1 sequence (P33981 1-857): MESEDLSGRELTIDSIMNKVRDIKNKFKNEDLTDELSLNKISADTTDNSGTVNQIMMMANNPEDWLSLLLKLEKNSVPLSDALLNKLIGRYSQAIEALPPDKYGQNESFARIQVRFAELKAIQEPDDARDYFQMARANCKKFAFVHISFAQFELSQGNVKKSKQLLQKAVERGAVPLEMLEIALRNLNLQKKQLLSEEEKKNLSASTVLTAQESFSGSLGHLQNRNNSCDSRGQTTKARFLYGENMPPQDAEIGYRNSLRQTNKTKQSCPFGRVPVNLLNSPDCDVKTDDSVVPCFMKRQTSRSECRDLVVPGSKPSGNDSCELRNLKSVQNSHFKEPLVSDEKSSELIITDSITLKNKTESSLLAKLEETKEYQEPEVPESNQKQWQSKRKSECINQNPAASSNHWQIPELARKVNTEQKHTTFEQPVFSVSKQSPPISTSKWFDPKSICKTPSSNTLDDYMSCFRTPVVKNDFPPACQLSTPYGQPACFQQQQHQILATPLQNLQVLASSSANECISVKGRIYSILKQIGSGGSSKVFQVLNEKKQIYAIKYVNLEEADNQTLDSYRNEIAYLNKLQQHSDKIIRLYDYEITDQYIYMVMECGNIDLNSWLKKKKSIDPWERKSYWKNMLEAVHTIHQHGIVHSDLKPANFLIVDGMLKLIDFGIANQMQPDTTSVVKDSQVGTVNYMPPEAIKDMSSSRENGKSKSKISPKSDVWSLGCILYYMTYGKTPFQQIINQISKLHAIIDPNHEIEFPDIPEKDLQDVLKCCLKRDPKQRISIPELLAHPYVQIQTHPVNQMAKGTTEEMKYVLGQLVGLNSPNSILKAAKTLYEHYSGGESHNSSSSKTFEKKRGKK
Briefly: Mps-1 kinase assay with 2 mM ATP (TR-FRET).

Experiment [2] has as its target T1, Mps-1 kinase. As to the kind of experiment: Mps-1 kinase assay with 10 μM ATP (TR-FRET). In general terms: In TR-FRET formats the signal depends on donor and acceptor labels being close together.

Take `CN(C)CCNC(=O)c1ccc(Nc2nc3ccc(-c4ccc(NC(=O)Cc5ccc(F)cc5)cc4)cn3n2)c(OCC(F)(F)F)c1` [Example 12.23, N-[2-(dimethylamino)ethyl]-4-{[6-(4-{[(4-fluorophenyl)-acetyl]amino}phenyl)[1,2,4]triazolo[1,5-a]pyridin-2-yl]amino}-3-(2,2,2-trifluoro-ethoxy)benzamide]: the IC50 against Mps-1 kinase [1] and against Mps-1 kinase [2] was not above 1 nM each time.

Consider `Cc1cc([S@@+](C)[O-])ccc1Nc1nc2ccc(-c3ccc(C(=O)NCc4ccc(Cl)cc4)cc3)cn2n1` (stereo in doubt) [Example 12.75, N-(4-chlorobenzyl)-4-(2-{[2-methyl-4-(methylsulfinyl)-phenyl]amino}[1,2,4]triazolo [1,5-a]pyridin-6-yl)-benzamide], for which the IC50 is 5.1 nM against Mps-1 kinase [1] and not above 1 nM at Mps-1 kinase [2].

For the molecule `CS(=O)(=O)CCNC(=O)c1ccc(Nc2nc3ccc(-c4ccc(NC(=O)Cc5ccc(F)cc5)cc4)cn3n2)c(OCC(F)(F)F)c1` [Example 12.21, 4-{[6-(4-{[(4-fluorophenyl)-acetyl]amino}phenyl)[1,2,4]triazolo[1,5-a]pyridin-2-yl]amino}-N-[2-(methyl-sulfonyl)ethyl]-3-(2,2,2-trifluoroethoxy)benzamide], the IC50 at Mps-1 kinase [1] and against Mps-1 kinase [2] was not above 1 nM each time.

As to `Cc1cc(NS(C)(=O)=O)ccc1Nc1nc2ccc(-c3ccc(NC(=O)Cc4ccc(F)cc4)cc3)cn2n1` [Example 12.34, 2-(4-fluorophenyl)-N-{4-[2-({2-methyl-4-[(methyl-sulfonyl)amino]phenyl}-amino)[1,2,4]triazolo[1,5-a]pyridin-6-yl]phenyl}-acetamide], the IC50 against Mps-1 kinase [1] is 6.6 nM; against Mps-1 kinase [2], not above 1 nM.

Regarding `COc1cc(C(=O)NCCCF)ccc1Nc1nc2ccc(-c3ccc(NC(=O)Cc4ccc(F)cc4)cc3)cn2n1` [Example 12.11, 4-{[6-(4-{[(4-fluorophenyl)-acetyl]amino}phenyl)[1,2,4]triazolo[1,5-a]pyridin-2-yl]amino}-N-(3-fluoro-propyl)-3-methoxybenzamide], the IC50 on Mps-1 kinase [1] is 1.2 nM; against Mps-1 kinase [2], not above 1 nM.

Turning to `COc1cc(C(=O)NCCS(C)(=O)=O)ccc1Nc1nc2ccc(-c3ccc(NC(=O)Cc4ccc(F)cc4)cc3)cn2n1` [Example 12.03], the IC50 at Mps-1 kinase [1] and against Mps-1 kinase [2] was not above 1 nM throughout.

For `Cc1cc(-c2ccc3nc(Nc4ccc(S(C)(=O)=O)cc4OCC(F)(F)F)nn3c2)ccc1C(=O)NCc1ccc(F)cc1F` [Example 12.80, N-(2,4-difluorobenzyl)-2-methyl-4-(2-{[4-(methyl-sulfonyl)-2-(2,2,2-trifluoro-ethoxy)phenyl]amino}[1,2,4]triazolo[1,5-a]pyridin-6-yl)-benzamide], the results for the IC50 against Mps-1 kinase [1] and against Mps-1 kinase [2] were 18 nM and not above 1 nM, respectively.

In the case of `Cc1cc(N(C)C)ccc1Nc1nc2ccc(-c3ccc(NC(=O)Cc4ccc(F)cc4)cc3)cn2n1` [Example 12.36, N-[4-(2-{[4-(dimethylamino)-2-methylphenyl]-amino}[1,2,4]triazolo[1,5-a]pyridin-6-yl)phenyl]-2-(4-fluorophenyl)acetamide], the IC50 against Mps-1 kinase [1] is 3.5 nM; against Mps-1 kinase [2] it was not above 1 nM.

On to `COc1cc(S(C)(=O)=O)ccc1Nc1nc2ccc(-c3ccc(NC(=O)Cc4ccc(F)c(C)c4)cc3)cn2n1` [Example 12.40, 2-(4-fluoro-3-methylphenyl)-N-[4-(2-{[2-methoxy-4-(methylsulfonyl)phenyl]-amino}[1,2,4]triazolo[1,5-a]pyridin-6-yl)phenyl]-acetamide], for which the IC50 against Mps-1 kinase [1] is 9.9 nM; at Mps-1 kinase [2], not above 1 nM.

Regarding `COCCNC(=O)c1ccc(Nc2nc3ccc(-c4ccc(C(=O)NCc5ccc(F)cc5)cc4)cn3n2)c(OC)c1` [Example 12.44, 4-[(6-{4-[(4-fluorobenzyl)-carbamoyl]phenyl}[1,2,4]triazolo [1,5-a]pyridin-2-yl)-amino]-3-methoxy-N-(2-methoxyethyl)benzamide], the IC50 on Mps-1 kinase [1] was 1.6 nM; at Mps-1 kinase [2] it was not above 1 nM.

With `CCS(=O)(=O)c1ccc(Nc2nc3ccc(-c4ccc(C(=O)NCc5ccc(F)cc5)cc4)cn3n2)c(OC(F)F)c1` [Example 12.61, 4-(2-{[2-(difluoromethoxy)-4-(ethylsulfonyl)phenyl]-amino}[1,2,4]triazolo[1,5-a]pyridin-6-yl)-N-(4-fluorobenzyl)benzamide], the IC50 against Mps-1 kinase [1] was 6.1 nM; on Mps-1 kinase [2], not above 1 nM.

As for `COc1cc(C(=O)NCCCF)ccc1Nc1nc2ccc(-c3ccc(C(=O)NCc4ccc(F)cc4)cc3)cn2n1` [Example 12.50, 4-[(6-{4-[(4-fluorobenzyl)-carbamoyl]phenyl}[1,2,4]triazolo [1,5-a]pyridin-2-yl)-amino]-N-(3-fluoropropyl)-3-methoxybenzamide], the figures for the IC50 against Mps-1 kinase [1] and on Mps-1 kinase [2] were 3.1 nM and not above 1 nM, respectively.

Turning to `CC(C)(CO)NC(=O)c1ccc(Nc2nc3ccc(-c4ccc(NC(=O)Cc5ccc(F)cc5)cc4)cn3n2)c(OCC(F)(F)F)c1` [Example 12.22, 4-{[6-(4-{[(4-fluorophenyl)-acetyl]amino}phenyl)[1,2,4]triazolo[1,5-a]pyridin-2-yl]amino}-N-(1-hydroxy-2-methylpropan-2-yl)-3-(2,2,2-trifluoroethoxy)benzamide], the IC50 on Mps-1 kinase [1] and against Mps-1 kinase [2] was not above 1 nM in each case.

For `C[S@@+]([O-])c1ccc(Nc2nc3ccc(-c4ccc(NC(=O)Cc5ccc(F)cc5)cc4)cn3n2)c(OCC(F)(F)F)c1` (stereo in doubt) [Example 12.24, 2-(4-fluorophenyl)-N-[4-(2-{[4-(methylsulfinyl)-2-(2,2,2-trifluoroethoxy)-phenyl]amino}[1,2,4]-triazolo[1,5-a]pyridin-6-yl)phenyl]acetamide], the IC50 against Mps-1 kinase [1] and against Mps-1 kinase [2] was not above 1 nM each time.

For `CCOc1cc(S(=O)(=O)CC)ccc1Nc1nc2ccc(-c3ccc(NC(=O)Cc4ccc(F)cc4)cc3)cn2n1` [Example 01.33, N-[4-(2-{[2-ethoxy-4-(ethylsulfonyl)phenyl]amino}[1,2,4]triazolo[1,5-α]-pyridin-6-yl)phenyl]-2-(4-fluorophenyl)acetamide], the values for the IC50 at Mps-1 kinase [1] and against Mps-1 kinase [2] were 1.3 nM and not above 1 nM, respectively.

Take `COc1cc(C(=O)NCC(F)F)ccc1Nc1nc2ccc(-c3ccc(C(=O)NCc4ccc(F)cc4)cc3)cn2n1` [Example 12.47, N-(2,2-difluoroethyl)-4-[(6-{4-[(4-fluorobenzyl)-carbamoyl]phenyl}[1,2,4]triazolo [1,5-a]pyridin-2-yl)amino]-3-methoxy-benzamide]: the IC50 on Mps-1 kinase [1] was 2.4 nM; at Mps-1 kinase [2] it was not above 1 nM.

Consider `CCOc1cc(S(C)(=O)=O)ccc1Nc1nc2ccc(-c3ccc(NC(=O)Cc4ccc(F)cc4)cc3)cn2n1` [Example 01.32, N-[4-(2-{[2-ethoxy-4-(methylsulfonyl)phenyl]amino}[1,2,4]triazolo[1,5-α]-pyridin-6-yl)phenyl]-2-(4-fluorophenyl)acetamide], for which the IC50 on Mps-1 kinase [1] and against Mps-1 kinase [2] was not above 1 nM each time.

Consider `COc1ccc(Nc2nc3ccc(-c4ccc(NC(=O)Cc5ccc(F)cc5)cc4)cn3n2)c(OC)c1` [Example 12.18, N-(4-{2-[(2,4-dimethoxy-phenyl)amino][1,2,4]-triazolo[1,5-a]pyridin-6-yl}phenyl)-2-(4-fluoro-phenyl)acetamide], for which the 50% inhibitory concentration (IC50) against Mps-1 kinase [1] was 1.5 nM; against Mps-1 kinase [2] it was not above 1 nM.

The IC50 is the midpoint of a concentration-inhibition curve. A high value points to weaker potency.
